Patent US8916711B2, “Imidazothiazole-chalcone derivatives as potential anticancer agents and process for the preparation thereof” (Council of Scientific and Industrial Research, priority 2009, dated 2014)
Read-outs that look alike come from different tables or passages of the source.

How the values were obtained:
Type in all cases: cell-based
NCI/ADR-RES = test: NCI in vitro cytotoxicity (SRB, 48 h), Ovarian panel; settings: Homo sapiens, 48 h exposure
SF-539 = test: NCI in vitro cytotoxicity (SRB, 48 h), CNS panel; settings: Homo sapiens; SF-539, CNS; 48 h exposure
CAKI-1 = test: NCI in vitro cytotoxicity (SRB, 48 h), Renal panel; settings: Homo sapiens
TK-10 = test: NCI in vitro cytotoxicity (SRB, 48 h), Renal panel; settings: Homo sapiens; TK-10, Renal; 48 h exposure
SN12C = test: NCI in vitro cytotoxicity (SRB, 48 h), Renal panel; settings: Homo sapiens, 48 h exposure
UO-31 = test: NCI in vitro cytotoxicity (SRB, 48 h), Renal panel; settings: Homo sapiens; UO-31, Renal; 48 h exposure
MALME-3M = test: NCI in vitro cytotoxicity (SRB, 48 h), Melanoma panel; settings: Homo sapiens, 48 h exposure
[1] = tested on: Prostate cancer cell lines; test: NCI in vitro cytotoxicity, whole panel; settings: Homo sapiens
OVCAR-5 = test: NCI in vitro cytotoxicity (SRB, 48 h), Ovarian panel; settings: Homo sapiens; OVCAR-5, Ovarian; 48 h exposure
NCI-H226 = test: NCI in vitro cytotoxicity (SRB, 48 h), Non-small cell lung panel; settings: Homo sapiens, 48 h exposure
Leukemia cell lines = test: NCI in vitro cytotoxicity, whole panel; settings: Homo sapiens
MOLT-4 = test: NCI in vitro cytotoxicity (SRB, 48 h), Leukemia panel; settings: Homo sapiens; MOLT-4, Leukemia; 48 h exposure
[2] = tested on: sixty human tumour cell lines; test: NCI in vitro cytotoxicity, all panels
Melanoma cell lines = test: NCI in vitro cytotoxicity, whole panel; settings: Homo sapiens
Renal cancer cell lines = test: NCI in vitro cytotoxicity, whole panel; settings: Homo sapiens
NCI-H522 = test: NCI in vitro cytotoxicity (SRB, 48 h), Non-small cell lung panel; settings: Homo sapiens, 48 h exposure
HOP-92 = test: as above; settings: Homo sapiens
EKVX = test: as above; settings: Homo sapiens, 48 h exposure
BT-549 = test: NCI in vitro cytotoxicity (SRB, 48 h), Breast panel; settings: Homo sapiens; BT-549, Breast; 48 h exposure
KM12 = test: NCI in vitro cytotoxicity (SRB, 48 h), Colon panel; settings: Homo sapiens, 48 h exposure
HCT-15 = test: NCI in vitro cytotoxicity (SRB, 48 h), Colon panel; settings: Homo sapiens; HCT-15, Colon; 48 h exposure
NCI-H322M = test: NCI in vitro cytotoxicity (SRB, 48 h), Non-small cell lung panel; settings: Homo sapiens, 48 h exposure
786-0 = test: NCI in vitro cytotoxicity (SRB, 48 h), Renal panel; settings: Homo sapiens; 786-0, Renal; 48 h exposure
SK-MEL-5 = test: NCI in vitro cytotoxicity (SRB, 48 h), Melanoma panel; settings: Homo sapiens; SK-MEL-5, Melanoma; 48 h exposure
[3] = tested on: Non-small-cell lung cancer cell lines; test: NCI in vitro cytotoxicity, whole panel; settings: Homo sapiens
MDA-MB-468 = test: NCI in vitro cytotoxicity (SRB, 48 h), Breast panel; settings: Homo sapiens; MDA-MB-468, Breast; 48 h exposure
U251 = test: NCI in vitro cytotoxicity (SRB, 48 h), CNS panel; settings: Homo sapiens, U-251, 48 h exposure
HL-60(TB) = test: NCI in vitro cytotoxicity (SRB, 48 h), Leukemia panel; settings: Homo sapiens, 48 h exposure
Description: (§1) The imidazothiazole-chalcone hybrids 7a, 7e, 7f, 8f and 19e have been tested against sixty human tumour cell lines derived from nine cancer types (leukemia, non-small cell lung cancer, colon cancer, CNS cancer, melanoma, ovarian cancer, renal cancer, prostate cancer and breast cancer) as per NCI protocol. For each compound, dose response curves for individual cell lines have been measured at a minimum of five concentrations at 10 fold dilutions. A protocol of 48 h continuous drug exposure has been used, and a sulforhodamine B (SRB) protein assay was used to estimate cell viability or growth. The concentration for 50% cell growth inhibition (GI50), total cell growth inhibition (TGI, 0% growth) and 50% cell death (LC50, […]) compared with the control has been calculated (Table-1).

SR = test: as above; settings: Homo sapiens, 48 h exposure
Description: as §1

SK-OV-3 = test: NCI in vitro cytotoxicity (SRB, 48 h), Ovarian panel; settings: Homo sapiens; SK-OV-3, Ovarian; 48 h exposure
Breast cancer cell lines = test: NCI in vitro cytotoxicity, whole panel; settings: Homo sapiens
K-562 = test: NCI in vitro cytotoxicity (SRB, 48 h), Leukemia panel; settings: Homo sapiens, K562; K-562, Leukemia; 48 h exposure

`COc1cc(C(=O)/C=C/c2c(-c3ccc(F)cc3)nc3sccn23)cc(OC)c1OC` [Compound 7e, (E)-3-(6-(4-fluorophenyl)imidazo[2,1-b]thiazol-5-yl)-1-(3,4,5-trimethoxyphenyl)prop-2-en-1-one] showed a GI50 (NCI/ADR-RES) of 2.1 µM, a GI50 (SF-539) of 1.74 µM and a GI50 (CAKI-1; CAKI-1, Renal, 48 h exposure) of 0.04 µM. The IC50 (CAKI-1; CAKI-1, Table 4, read-out: Comparative efficacy) was 0.04 µM, the GI50 (TK-10) was 5.81 µM and the GI50 (SN12C) was 1.88 µM. The GI50 (UO-31) was 2.03 µM, the GI50 (MALME-3M) was 8.27 µM and the GI50 ([1]; Prostate cell, exposure period of at least 48 hrs, read-out: GI50, range over prostate cell lines) was 2.45 to 3.43 µM. The GI50 ([1]; Prostate, average of the panel's cell lines, read-out: Log10 GI50 (converted)) was 2.95 µM, the LC50 ([1]; Prostate, average of the panel's cell lines, read-out: Log10 LC50 (converted)) was ≥ 100 µM and the GI50 (OVCAR-5) was 1.92 µM. For the same molecule, the GI50 (NCI-H226) was 1.89 µM, the GI50 (Leukemia cell lines; Leukemia, average of six to eight cell lines, read-out: Log10 GI50 (converted)) was 1.86 µM and the CC50 (Leukemia cell lines; Leukemia, average of six to eight cell lines, read-out: Log10 LC50 (converted)) was 70.8 µM. For the same molecule, the GI50 (Leukemia cell lines; exposure period of at least 48 hrs, read-out: GI50, range over leukemia cell lines) was 1.55 to 2.23 µM, the GI50 (MOLT-4) was 2.07 µM and the GI50 ([2]; Homo sapiens, sixty cell lines, nine panels, read-out: GI50 against sixty cell lines in nine cell panels) was < 9 µM. For the same molecule, the “Log10 TGI mean graph midpoint (MG_MID)” value ([2]; human tumour cell lines) was −5.02, the “in vitro cytotoxicity, in words” value ([2]; human tumour cell lines) was “significant cytotoxicity” and the GI50 ([2]; human tumour cell lines, read-out: Log10 GI50 mean graph midpoint (MG_MID) (converted)) was 2.24 µM. For the same molecule, the CC50 ([2]; human tumour cell lines, read-out: Log10 LC50 mean graph midpoint (MG_MID) (converted)) was 58.9 µM, the GI50 (Melanoma cell lines; Melanoma, average of six to eight cell lines, read-out: Log10 GI50 (converted)) was 2.63 µM and the CC50 (Melanoma cell lines; Melanoma, average of six to eight cell lines, read-out: Log10 LC50 (converted)) was 42.7 µM. The GI50 (Melanoma cell lines; exposure period of at least 48 hrs, read-out: GI50, range over melanoma cell lines) was 1.82 to 8.27 µM, the GI50 (Renal cancer cell lines; Renal, average of six to eight cell lines, read-out: Log10 GI50 (converted)) was 1.55 µM and the CC50 (Renal cancer cell lines; Renal, average of six to eight cell lines, read-out: Log10 LC50 (converted)) was 87.1 µM. The GI50 (Renal cancer cell lines; exposure period of at least 48 hrs, read-out: GI50, range over renal cell lines) was 0.04 to 5.81 µM, the GI50 (NCI-H522) was 2.32 µM and the GI50 (HOP-92; HOP-92, Non-small cell lung, 48 h exposure) was 1.05 µM. It also gave a GI50 (HOP-92; HOP-92, non-small cell lung) of 1.05 µM, an IC50 (HOP-92; HOP-92, Table 4, read-out: Comparative efficacy) of 1.05 µM and a GI50 (EKVX) of 2.74 µM. It also gave a GI50 (BT-549) of 3.76 µM, a GI50 (KM12) of 2.3 µM and a GI50 (HCT-15) of 2.94 µM. The GI50 (NCI-H322M) was 3.63 µM, the GI50 (786-0) was 2.51 µM and the GI50 (SK-MEL-5) was 1.45 µM. It also gave a GI50 ([3]; Non-small-cell lung, average of six to eight cell lines, read-out: Log10 GI50 (converted)) of 2.24 µM, a CC50 ([3]; Non-small-cell lung, average of six to eight cell lines, read-out: Log10 LC50 (converted)) of 56.2 µM and a GI50 ([3]; exposure period of at least 48 hrs, read-out: GI50, range over lung cell lines) of 1.05 to 3.63 µM. The GI50 (MDA-MB-468) was 3.17 µM, the GI50 (U251) was 2.18 µM and the GI50 (HL-60(TB)) was 1.77 µM. It also gave a GI50 (SR) of 1.73 µM, a GI50 (SK-OV-3) of 3.02 µM and a GI50 (Breast cancer cell lines; Breast, average of six to eight cell lines, read-out: Log10 GI50 (converted)) of 2.82 µM. For the same molecule, the CC50 (Breast cancer cell lines; Breast, average of six to eight cell lines, read-out: Log10 LC50 (converted)) was ≥ 100 µM, the IC50 (Breast cancer cell lines; exposure period of at least 48 hrs, read-out: IC50, range over breast cell lines) was 2.05 to 3.76 µM and the GI50 (K-562) was 1.55 µM.
